Measured values published in US8507460B2, “Substituted 3′,5′-cyclic phosphates of purine nucleotide compounds and pharmaceutical compositions for the treatment of viral infections” (priority 2011, dated 2013).

What was measured:
[1] = Stability in mouse blood; type: in vitro ADME; conditions: mouse whole blood, on ice, percent unchanged
Protocol: Stability of test compounds were determined in fresh human whole blood with K2EDTA as the anticoagulant (stored refrigerated at 2-8° C. and used within 7 days of receipt). The experiment was conducted with three replicates for each time point. Whole blood, pre-incubated at 37° C. for 10-15 minutes, was fortified with a solution of test compound for a final concentration of 0.5 μM and mixed for 30 sec. At intervals (0, 0.5, 1 and 2 hr), three […] aliquots were combined with 200 μL (each) of an ice-cold solution of the internal standard (carbutamide 500 ng/mL in acetonitrile). The samples were vortexed for 30 sec and then centrifuged at 16,100 g for 5 min. The supernatant was analyzed by LC-MS/MS. The MS peak area ratio of the test compound versus the internal standard was calculated and percent unchanged test compound was calculated for each time point using this ratio.
The stability in mouse blood was determined on ice at 0, 0.5 and 1 hr as above.

[2] = Plasma and liver pharmacokinetics following a single oral dose in monkeys (Example 6); type: in vivo; conditions: cynomolgus monkey, plasma, Cynomolgus monkeys, single oral dose (mg/kg per Table 6: 1a 10, A 25, B 10, C 10, D 50)
Protocol: […] Untreated animals were used for the collection of control liver. Plasma samples were collected at 1, 2, 4, 6, 8, 12 and 24 hours for all compounds and additionally at 0.5 hour (Compounds 1a, B and D), 3 and 10 hours (Compound C), and 32 and 48 hours post dose for Compound A. Terminal liver samples were collected from three animals per time point at 6, 12 and 24 hours post dose for all compounds and additionally at 2 hours (Compounds 1a, B and D), 3 hours (Compound C) and 32 and 48 hours post dose for Compound A. Liver specimens were collected from all animals immediately after the incision. Freezing forceps stored in liquid nitrogen were used to freeze the liver before excision.
Plasma samples were analyzed for the prodrug and 2′-methylguanosine (2′-MeG) or relevant nucleoside by LC-MS/MS. For protein precipitation and extraction, each plasma sample (50 μL) was treated with 500 μL of 0.2% formic acid in acetonitrile and 20 μL of an appropriate internal standard working solution. After vortexing and centrifugation, 500 μL of the sample extracts were transferred to a new plate, dried under N2 at ˜28° C. and reconstituted with 75 μL of 0.2% FA in water. The extracts were chromatographed on an Aquasil C18 column using a gradient system of 0.2% formic acid in water and acetonitrile. The analytes were detected and quantified by tandem mass spectrometry in positive ion mode on an MDS Sciex API5000 or an API4000 equipped with a Turbo Ionspray® interface. The calibration range was 0.500 (LLOQ) to 200 ng/mL in mouse plasma. The corresponding range for molar units is 1.68 to 673 pmol/mL.
Liver samples were analyzed for the active species 2′-methylguanosine triphosphate (2′-MeGTP) or relevant nucleoside triphosphate by LC-MS/MS. The triphosphate levels were assayed by homogenizing (on ice) a known weight of mouse liver with 4× volume of 0.95 M trichloroacetic acid (TCA). Appropriate internal standard solution was added to the homogenate followed by neutralization with 20% ammonium hydroxide solution and addition of 500 μL 1% formic acid. The tissue samples were extracted by weak anion exchange solid phase extraction (SPE). Post extraction, the eluates were evaporated under nitrogen, followed by reconstitution before injection onto the LC-MS/MS system. The samples were chromatographed on a Luna NH2 column using a gradient system of ammonium acetate (1 mM to 20 mM and pH 8.0 to pH 10.0) in water and acetonitrile (70:30). The analyte was detected and quantified by tandem mass spectrometry in positive ion mode on an API4000 equipped with a Turbo Ionspray® interface. The calibration range was 10 to 10000 pmol/mL in mouse liver homogenate (50 to 50000 pmol/g of mouse liver).

[3] = test system: fresh human hepatocytes; experiment: Release of active metabolite in fresh human hepatocytes; type: in vitro ADME; conditions: 10 μM, 6 hr
Protocol: Plates of fresh human and mouse hepatocytes were obtained on ice. The medium was removed and replaced with hepatocyte culture medium (William's E supplemented with penicillin-streptomycin, 1% L-glutamine, 1% insulin-transferrin-selenium and 0.1 μM Dexamethasone (Invitrogen) or with Invitro GRO HI medium complemented with Torpedo antibiotics (Celsis)). Cells were left overnight in an incubator at 37° C. to acclimatize to culture and the medium.
Hepatocyte incubations were conducted at a final volume of 0.5 mL hepatocyte culture medium/well (0.8 million cells/well for human and 0.5 million cells/well for mouse; 12 well plate no overlay, collagen coat). Culture medium from overnight incubation of cells was removed and replaced with fresh medium, pre-warmed to 37° C., containing 10 μM of test compound from a stock solution in DMSO (final DMSO concentration was 0.1%). At each specific time point, incubation medium was removed and cell monolayers were carefully washed two times with ice-cold PBS. Following the last wash, all PBS was carefully removed and 1.0 mL of extraction solution (ice-cold 70% methanol/30% water) added. Cells were scraped off and suspended in the extraction solution, transferred to 2 mL polypropylene microfuge tubes and intracellular contents extracted overnight at −20° C.
After the overnight treatment the cellular extracts were prepared by centrifugation at 16,000×g for 10 min to remove cellular debris. The remaining sample was then dried using a refrigerated centrivap concentrator. Dry extracts were reconstituted in 1000 μL of HPLC-grade water and centrifuged at 16,000×g for 10 min. Aliquots (100 μL each) of the supernatant were transferred into a 96 well plate and internal standard (4 ng/mL final concentration) was added as the internal standard (IS) for LC-MS/MS analysis.
The incubation time points were 6, 24 and 48 hours for human hepatocytes and 1, 4, 8, 12 and 24 hours for mouse hepatocytes.

[4] = Cytotoxicity evaluation, CellTiter-Blue Cell Viability Assay; type: cell-based; conditions: human, Zluc cells, read-out: HCV Replicon CC50
Protocol: For cytotoxicity evaluation, Zluc cells were treated with compound as described above, and cell viability was monitored using the CellTiter-Blue Cell Viability Assay (Promega) by adding 20 μL of the assay solution to each well. The plates were then incubated at 37° C./5% CO2 for at least 3 hours.

Q: For `CCOc1nc(N)nc2c1ncn2[C@@H]1O[C@@H]2COP(=O)(OC(C)C)O[C@H]2[C@@]1(C)O` (single isomer, unassigned) [Compound 1a], which “Stability WB_Mouse (ice; 1 hr)” value [1] is on record?
A: 94%

Q: What about the AUC(0-t) ([2]; normalized to 1 μmol/kg dose, read-out: Plasma prodrug AUC0-24) of the same molecule?
A: 0.15 µM·h

Q: And the Cmax ([2]; normalized to 1 μmol/kg dose, read-out: Plasma prodrug Cmax)?
A: 22 nM

Q: And the Tmax ([2]; read-out: Plasma prodrug Tmax)?
A: 2 h

Q: And the “FHH TP (6 hr)” value [3]?
A: BLD^a

Q: And the CC50 at 72 h [4]?
A: > 50 µM
